Results from patent US9617256B2 (priority 2007, dated 2017).
In brackets after ≈: the same amount, converted by molar mass.

Legend:
AECO001 (ATCC25922) = assay: MIC broth microdilution, AECO001; assay type: cell-based, E. coli; conditions: Escherichia coli, ATCC25922, read-out: MIC AECO001
Procedure, shortened: (§1)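 CLSI-guided microdilution: bacteria passaged overnight at 35° C. on Mueller-Hinton agar, tested in cation-adjusted broth at a final 3×10^5–7×10^5 CFU/mL across 2-fold drug dilutions, read after 18-24 h at 35° C.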

[1] = test system: AECO063 (ATCC25922 bearing an acrAB mutation); assay: microbe, parasite or virus in culture; assay type: cell-based, E. coli; conditions: Escherichia coli, ATCC25922, read-out: MIC AECO063
Procedure, shortened: as §1

APAE001 (ATCC27853) = assay: MIC broth microdilution, APAE001; assay type: cell-based, P. aeruginosa; conditions: Pseudomonas aeruginosa, ATCC27853, read-out: MIC APAE001, APAE001 is ATCC27853
Procedure, shortened: as §1

[2] = test system: APAE006 (strain of P. aeruginosa in which all efflux pumps are inactivated); assay: microbe, parasite or virus in culture; assay type: cell-based; conditions: Pseudomonas aeruginosa, read-out: MIC APAE006, P. aeruginosa, all efflux pumps inactivated
Procedure, shortened: as §1

[3] = test system: APAE006 in the presence of 8 micrograms per milliliter of polymyxin B nonapeptide; assay type: cell-based, P. aeruginosa; conditions: in the presence of 8 micrograms per milliliter of polymyxin B nonapeptide
Procedure, shortened: as §1

[4] = test system: AABA1060 (clinical isolate of Acinetobacter baumannii); assay: MIC broth microdilution, AABA1060; assay type: cell-based; conditions: Acinetobacter baumannii, read-out: MIC AABA1060
Procedure, shortened: as §1

[5] = test system: ASAU001 (laboratory strain of S. aureus, ATCC29213); assay: MIC broth microdilution, ASAU001; assay type: cell-based; conditions: Staphylococcus aureus, ATCC29213, read-out: MIC ASAU001
Procedure, shortened: as §1

AECO001 HSA AGP = assay: MIC broth microdilution, AECO001 HSA AGP; assay type: cell-based, E. coli; conditions: Escherichia coli
Description: Bacterial isolates were cultivated from −70° C. frozen stocks by overnight passages at 35° C. in ambient air on Mueller-Hinton agar (Beckton Dickinson, Franklin Lakes, N.J.). Clinical isolates tested were obtained from various geographically diverse hospitals in the US and abroad (Focus Diagnostics, Herndon, Va. and JMI, North Liberty, Iowa). Quality control strains were from the American Type Culture Collection (ATCC; Rockville, Md.). Additional primary panel strains were generated using standard molecular biology techniques.
Minimum Inhibitory Concentrations (MICs) were determined by the broth microdilution method in accordance with the Clinical and Laboratory Standards Institute (CLSI) guidelines. In brief, organism suspensions were adjusted to a 0.5 McFarland standard to yield a final inoculum between 3×10^5 and 7×10^5 colony-forming units (CFU)/mL. Drug dilutions and inocula were made in sterile, cation adjusted Mueller-Hinton Broth (Beckton Dickinson). An inoculum volume of 100 μL was added to wells containing 100 μL of broth with 2-fold serial dilutions of drug. All inoculated microdilution trays were incubated in ambient air at 35° C. for 18-24 hours. […] Performance of the assay was monitored by the use of laboratory quality-control strains and levofloxacin, a compound with a defined MIC spectrum, in accordance with CLSI guidelines.
*AECO001 is ATCC25922, AECO063 is ATCC25922 bearing an acrAB mutation, APAE001 is ATCC27853, APAE006 is a strain of P. aeruginosa in which all efflux pumps are inactivated, APAE006+PMBN indicates MICs with the indicated strain in the presence of 8 micrograms per milliliter of polymyxin B nonapeptide, AABA1060 is a clinical isolate of Acinetobacter baumannii, ASAU001 is a laboratory strain of S. aureus (ATCC29213).

For `O=C(CNC1CC1)NC[C@H](NC(=O)c1ccc(C#CC#Cc2ccccc2)cc1)C(=O)NO` [Example 85-1, N—[(S)-2-(2-Cyclopropylamino-acetylamino)-1-hydroxycarbamoyl-ethyl]-4-(4-phenyl-buta-1,3-diynyl)-benzamide], the MIC (AECO001 (ATCC25922)) was < 2 µg/mL, the MIC [1] was < 2 µg/mL and the MIC (APAE001 (ATCC27853)) was 2 to 16 µg/mL (≈ 4.5 to 36 µM). The MIC [2] was < 2 µg/mL, the “MIC APAE006 + PMBN” value [3] was “A (MIC's of 2.0 μg/mL or less = A)” and the MIC [4] was 16 to 64 µg/mL (≈ 36 to 144 µM). It also gave an MIC [5] of 16 to 64 µg/mL (≈ 36 to 144 µM) and an MIC (AECO001 HSA AGP) of 2 to 16 µg/mL (≈ 4.5 to 36 µM).

In the case of `C[C@@H](NC(=O)CNC1CC1)[C@H](NC(=O)c1ccc(C#CC#Cc2ccccc2)cc1)C(=O)NO` [Example 85-2], the MIC (AECO001 (ATCC25922)) is reported as < 2 µg/mL, the MIC [1] is reported as < 2 µg/mL and the MIC (APAE001 (ATCC27853)) is reported as 2 to 16 µg/mL (≈ 4.36 to 34.9 µM). The MIC [2] was < 2 µg/mL, the “MIC APAE006 + PMBN” value [3] was “A (MIC's of 2.0 μg/mL or less = A)” and the MIC [4] was 16 to 64 µg/mL (≈ 34.9 to 140 µM). For the same molecule, the MIC [5] was 16 to 64 µg/mL (≈ 34.9 to 140 µM) and the MIC (AECO001 HSA AGP) was 2 to 16 µg/mL (≈ 4.36 to 34.9 µM).

`C[C@@H](N)[C@H](NC(=O)c1ccc(C#CC#Cc2ccc(CN3CCOCC3)cc2)cc1)C(=O)NO` [Example 86-2] was tested, and the MIC (AECO001 (ATCC25922)) was < 2 µg/mL, the MIC [1] was < 2 µg/mL and the MIC (APAE001 (ATCC27853)) was 2 to 16 µg/mL (≈ 4.34 to 34.7 µM). For the same molecule, the MIC [2] was < 2 µg/mL, the “MIC APAE006 + PMBN” value [3] was “A (MIC's of 2.0 μg/mL or less = A)” and the MIC [4] was 2 to 16 µg/mL (≈ 4.34 to 34.7 µM). For the same molecule, the MIC [5] was 16 to 64 µg/mL (≈ 34.7 to 139 µM) and the MIC (AECO001 HSA AGP) was < 2 µg/mL.

In the case of `C[C@@H](N)[C@H](NC(=O)c1ccc(C#CC#Cc2ccc(CNC3CC3)cc2)cc1)C(=O)NO` [Example 86-3], the MIC (AECO001 (ATCC25922)) is reported as < 2 µg/mL, the MIC [1] is reported as < 2 µg/mL and the MIC (APAE001 (ATCC27853)) is reported as < 2 µg/mL. For the same molecule, the MIC [2] was < 2 µg/mL, the “MIC APAE006 + PMBN” value [3] was “A (MIC's of 2.0 μg/mL or less = A)” and the MIC [4] was 2 to 16 µg/mL (≈ 4.65 to 37.2 µM). For the same molecule, the MIC [5] was 16 to 64 µg/mL (≈ 37.2 to 149 µM) and the MIC (AECO001 HSA AGP) was < 2 µg/mL.

For `C[C@@H](O)[C@H](NC(=O)c1ccc(C#CC#Cc2ccc(CNC3CC3)cc2)cc1)C(=O)NO` [Example 87-2], the MIC (AECO001 (ATCC25922)) was < 2 µg/mL, the MIC [1] was < 2 µg/mL and the MIC (APAE001 (ATCC27853)) was < 2 µg/mL. For the same molecule, the MIC [2] was < 2 µg/mL, the “MIC APAE006 + PMBN” value [3] was “A (MIC's of 2.0 μg/mL or less = A)” and the MIC [4] was 16 to 64 µg/mL (≈ 37.1 to 148 µM). For the same molecule, the MIC [5] was 16 to 64 µg/mL (≈ 37.1 to 148 µM) and the MIC (AECO001 HSA AGP) was < 2 µg/mL.

For `CC(C)(O)[C@H](NC(=O)c1ccc(C#CC#Cc2ccc(CNC3CC3)cc2)cc1)C(=O)NO` [Example 87-3], the MIC (AECO001 (ATCC25922)) was < 2 µg/mL, the MIC [1] was < 2 µg/mL and the MIC (APAE001 (ATCC27853)) was < 2 µg/mL. The MIC [2] was < 2 µg/mL, the “MIC APAE006 + PMBN” value [3] was “A (MIC's of 2.0 μg/mL or less = A)” and the MIC [4] was < 2 µg/mL. For the same molecule, the MIC [5] was 16 to 64 µg/mL (≈ 35.9 to 144 µM) and the MIC (AECO001 HSA AGP) was < 2 µg/mL.

For `C[C@@H](N)[C@H](NC(=O)c1ccc(C#CC#Cc2cncn2C)cc1)C(=O)NO` [Example 88-1, N-((1S,2R)-2-Amino-1-hydroxycarbamoyl-propyl)-4-[4-(3-methyl-3H-imidazol-4-yl)-buta-1,3-diynyl]-benzamide], the MIC (AECO001 (ATCC25922)) was < 2 µg/mL, the MIC [1] was < 2 µg/mL and the MIC (APAE001 (ATCC27853)) was 2 to 16 µg/mL (≈ 5.47 to 43.8 µM). The MIC [2] was < 2 µg/mL, the “MIC APAE006 + PMBN” value [3] was “A (MIC's of 2.0 μg/mL or less = A)” and the MIC [4] was 16 to 64 µg/mL (≈ 43.8 to 175 µM). For the same molecule, the MIC [5] was 16 to 64 µg/mL (≈ 43.8 to 175 µM) and the MIC (AECO001 HSA AGP) was 2 to 16 µg/mL (≈ 5.47 to 43.8 µM).

In the case of `C[C@@H](N)[C@H](NC(=O)c1ccc(C#CC#Cc2ccncc2)cc1)C(=O)NO` [Example 88-2], the MIC (AECO001 (ATCC25922)) is reported as < 2 µg/mL, the MIC [1] is reported as < 2 µg/mL and the MIC (APAE001 (ATCC27853)) is reported as < 2 µg/mL. The MIC [2] was < 2 µg/mL, the “MIC APAE006 + PMBN” value [3] was “A (MIC's of 2.0 μg/mL or less = A)” and the MIC [4] was 2 to 16 µg/mL (≈ 5.52 to 44.2 µM). The MIC [5] was 2 to 16 µg/mL (≈ 5.52 to 44.2 µM) and the MIC (AECO001 HSA AGP) was 2 to 16 µg/mL (≈ 5.52 to 44.2 µM).

In the case of `C[C@@H](N)[C@H](NC(=O)c1ccc(C#CC#Cc2cccnc2)cc1)C(=O)NO` [Example 88-3], the MIC (AECO001 (ATCC25922)) is reported as < 2 µg/mL, the MIC [1] is reported as < 2 µg/mL and the MIC (APAE001 (ATCC27853)) is reported as < 2 µg/mL. For the same molecule, the MIC [2] was < 2 µg/mL, the “MIC APAE006 + PMBN” value [3] was “A (MIC's of 2.0 μg/mL or less = A)” and the MIC [4] was 2 to 16 µg/mL (≈ 5.52 to 44.2 µM). The MIC [5] was > 64 µg/mL and the MIC (AECO001 HSA AGP) was 2 to 16 µg/mL (≈ 5.52 to 44.2 µM).
